Like-named read-outs stand apart in the source and are kept apart here.
How the values were obtained:
[1] = tested on: Plasmodium falciparum 3D7-A10 parasites; assay: Stage specificity assay (8-h exposure of synchronized stages, IC50^8h); type: cell-based; settings: for Ratio lowest IC50 8hr/IC50 72hr: 3D7-A10; for IC50: Plasmodium falciparum
[2] = tested on: asynchronous 3D7-A10 parasite cultures; assay: Standard 72-h exposure asexual blood stage susceptibility assay (IC50^72h); type: cell-based, Plasmodium falciparum; settings: Plasmodium falciparum, 3D7, 72 h, read-out: Overall (72hr assay) Mean IC50 (IC50^72h)
[3] = 3D7, read-out: Early rings IC50 (IC50^8h), 8-h exposure 0–8 hr, bound given in μM
[4] = 3D7, read-out: Early trophozoites Mean IC50 (IC50^8h), 8-h exposure 16–24 hr, 3D7-A10, survival at 60 h
[5] = 3D7, read-out: Late rings IC50 (IC50^8h), 8-h exposure 8–16 hr, bound given in μM
[6] = 3D7, read-out: Late trophozoites Mean IC50 (IC50^8h), 8-h exposure 24–32 hr, 3D7-A10, survival at 60 h

Row | Ratio lowest IC50 8hr/IC50 72hr [1] | IC50 ([1]; 3D7, 8 h, read-out: IC50^8h values at all tested stages, 8-h exposures, all asexual blood stages) [µM] | IC50 [1, 3] [µM] | IC50 [1, 5] [µM] | IC50 ([1]; 3D7, read-out: Schizonts IC50 (IC50^8h), 8-h exposure 32–40 hr, bound given in μM) [µM] | IC50 [2] [µM] | Compound | IC50 [1, 4] [µM] | IC50 [1, 6] [µM] | Peak Activity (Table S1) ([1]; stage(s) with the lowest IC50^8h) | killing in stage specificity assay ([1]; 8-h exposures, survival curves) | IC50 ([1]; 3D7, read-out: Schizonts Mean IC50 (IC50^8h), 8-h exposure 32–40 hr, 3D7-A10, survival at 60 h) [µM]
1 | 4.9 | > 1 | > 10 | > 10 | > 10 | 0.405 | O=CN(O)CCCP(=O)(O)O [Fosmidomycin, reference compound] | 1.98 | 1.99 | Trophs | – | –
2 | 2.6 | – | > 25 | > 25 | – | 0.185 | CCOC(=O)C1=C(C)N=c2s/c(=C\c3cc(Cl)ccc3O)c(=O)n2C1c1ccc(OC)cc1 (centres unmarked) [MMV665971] | 0.496 | 0.485 | – | incomplete killing at all asexual blood stages | 0.523

Source: publication PMC7031696 (Cell chemical biology, 2019)
